Test results taken from patent publication US20250042920A1 (OCEAN UNIVERSITY OF CHINA, priority 2021, published 2025).

Columns and labels:
[1] = molecular target: MNK1 (Homo sapiens, UniProt Q9BUB5); test: MNK1 kinase inhibition assay (LANCE Ultra kinase activity assay, PerkinElmer); assay type: biochemical; conditions: 450 μM ATP
Protocol: (§1) MNK1 and MNK2 kinase inhibition assays were performed using LANCE Ultra kinase activity assay developed by PerkinElmer. […] The test steps are as follows: At 25° C., 1.00 ng MNK1 or 0.05 ng MNK2 was prepared with different concentrations (10000, 1000, 100, 10, 1 nM) of the tested compound to form a total volume of 10 μL reaction mixture (MNK1: 12.5 nM CREB, 450 μM ATP, 2 mM DTT, 1× buffer; MNK2: 12.5 nM CREB, 100 μM ATP, 2 mM DTT, 1×buffer), and incubation for 60 min. The reaction was terminated by adding 5 μL EDTA/Detection buffer and 5 μL Eu-CREB/Detection buffer. The ratio of HTRF signals at 615 nm and 665 nm was detected after 60 min of incubation. The inhibition rate was calculated by measuring the compounds at 1000 nM.
(§2) Then five different concentrations (10000, 1000, 100, 10, 1 nM) of the tested compounds were measured, and the IC50 value was calculated according to the inhibition rate fitting curve.

[2] = molecular target: MNK2 (Homo sapiens, UniProt Q9HBH9); test: MNK2 kinase inhibition assay (LANCE Ultra kinase activity assay, PerkinElmer); assay type: biochemical; conditions: 100 μM ATP
Chain of MNK2 (Q9HBH9 whole entry): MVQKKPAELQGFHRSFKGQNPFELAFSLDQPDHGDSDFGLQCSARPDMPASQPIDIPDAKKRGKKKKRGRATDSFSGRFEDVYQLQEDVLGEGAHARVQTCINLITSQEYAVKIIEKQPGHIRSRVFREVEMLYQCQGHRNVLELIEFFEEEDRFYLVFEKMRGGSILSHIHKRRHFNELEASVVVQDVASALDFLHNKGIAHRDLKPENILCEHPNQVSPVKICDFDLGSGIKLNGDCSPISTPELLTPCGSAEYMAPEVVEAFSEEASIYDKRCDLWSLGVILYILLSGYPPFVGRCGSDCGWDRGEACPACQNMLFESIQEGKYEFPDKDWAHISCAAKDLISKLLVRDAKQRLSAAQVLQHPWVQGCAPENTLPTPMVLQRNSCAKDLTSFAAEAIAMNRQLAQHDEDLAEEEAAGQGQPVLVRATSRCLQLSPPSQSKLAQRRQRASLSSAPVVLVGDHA
Protocol: as §1, §2

[3] = system: C57BL/6J male mice, high-fat diet obesity model; test: Weight loss trial in a high-fat feeding obesity model; assay type: in vivo; conditions: obese C57BL/6J mice; 50 or 100 mg/kg daily gavage; after 1 month of treatment
Protocol: C57BL/6J male mice were fed with high-fat diet (60 kcal %) and low-fat diet (10 kcal %), respectively. After 16 weeks, the obesity model was successfully established (the body weight of high-fat diet was higher than 20% of the body weight of low-fat diet). They were divided into blank group, 12 high dose group (100 mg/kg), 12 low dose group (50 mg/kg) and orlistat group (50 mg/kg). The mice in the control group were given normal saline as the control, and the daily afternoon gavage of the drug for 4 weeks.

[4] = system: STZ+ high-fat fed type 2 diabetic Kunming mice; test: Hypoglycemic test in STZ+ high-fat fed diabetic mouse model; assay type: in vivo; conditions: for blood glucose: gavage, 8 weeks (FIG. 1)
Protocol: A total of 50 male Kunming mice were fed in a constant temperature of 25° C. with free access to food and water. After 5 days of adaptive feeding, the mice were divided into two groups for the first time. The first group (n=10) was the blank group (C) fed with normal diet, and the rest were the second group (n=40) fed with 60% high-fat diet to induce high-fat model and free access to water for 4 weeks. At the fifth week, the mice in the second group were injected with streptozotocin (STZ) to induce type 2 diabetes model. The total injection dose was 150 mg/kg, and the feeding conditions were unchanged. Type 2 diabetic mice with blood glucose levels higher than 11 mmol/L were divided into model group (M, n=10) and […]. Distilled water), metformin group (Meft, 225 mg/kg/d), compound 12 low-dose group (2A-L, 50 mg/kg/d), compound 12 high-dose group (2A-H, 100 mg/kg/d). The […] in group M were given distilled water by gavage every morning, and the dosage was Meft: 225 mg/kg. 2A-L: 50 mg/kg; 2A-H: 100 mg/kg. The mice were administrated by gavage at a dose of […] for 8 weeks, and the body weight and fasting blood glucose were measured regularly during the period.

[5] = system: male db/db mice; test: Insulin tolerance and liver function improvement test in male db/db mouse model; assay type: in vivo
Protocol: Six-week-old male db/db mice were randomly divided into 6 groups of 12 mice in each group: Model group (M, distilled water), metformin group (Meft, 200 mg/kg/d), lovastatin group (6 mg/kg), compound 12 low dose group (20 mg/kg/d), compound 12 middle dose group (40 mg/kg/d), compound 12 high dose group (80 mg/kg/d). They were raised in a constant temperature of 25° C. and fed and drinking freely. The mice were administrated by gavage at a dose of […] for 6 weeks, and the body weight and fasting blood glucose were measured regularly during the period.
Insulin tolerance test (ITT) was performed with […] (1.0 U/ml, 1.0 U/kg) and fasting for 4 hours in the morning. In the afternoon experiment, weight was weighed, blood glucose was measured before insulin injection, insulin injection volume was calculated according to body weight, and blood glucose was measured at 15 min, 30 min, 45 min, and 60 min. At the end of the experiment, each cage was supplemented with feed.

[6] = compared with the model group (FIG. 3)
[7] = high-dose group (80 mg/kg/d) vs model group (FIG. 5)

Chain of MNK1 (Q9BUB5 whole entry): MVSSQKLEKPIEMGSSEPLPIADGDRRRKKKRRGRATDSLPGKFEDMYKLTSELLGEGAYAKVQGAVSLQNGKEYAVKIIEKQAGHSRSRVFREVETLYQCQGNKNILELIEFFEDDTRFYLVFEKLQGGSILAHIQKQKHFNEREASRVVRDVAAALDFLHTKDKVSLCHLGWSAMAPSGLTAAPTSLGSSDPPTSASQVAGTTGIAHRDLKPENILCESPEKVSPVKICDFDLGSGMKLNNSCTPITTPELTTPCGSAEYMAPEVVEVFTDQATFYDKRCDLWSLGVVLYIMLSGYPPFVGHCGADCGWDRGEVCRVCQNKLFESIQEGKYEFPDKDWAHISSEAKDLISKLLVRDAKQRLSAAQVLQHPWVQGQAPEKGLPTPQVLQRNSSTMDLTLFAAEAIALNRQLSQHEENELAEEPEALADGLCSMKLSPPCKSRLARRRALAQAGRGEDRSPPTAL

Question: What does the source list for `CN(C)C1CCN(C(=O)c2ccc(-c3nn4c(-c5ccc(C#N)cc5)cnc4s3)cc2)CC1` [Compound 12, 4-(2-(4-(4-(dimethylamino)piperidine-1-carbonyl)phenyl)imidazo[2,1-b][1,3,4]thiadiazol-5-yl)benzonitrile]?
Answer: IC50 ([1]; five concentrations 10000-1 nM): < 50 nM; inhibition at 1 µM ([1]; inhibition rate at 1000 nM compound, 60 min, 25° C., read-out: Inhibitory activity(1 μM) MNK1): > 75%; IC50 ([2]; five concentrations 10000-1 nM): < 50 nM; inhibition at 1 µM ([2]; inhibition rate at 1000 nM compound, 60 min, 25° C., read-out: Inhibitory activity(1 μM) MNK2): > 75%; body weight [3]: decreased significantly; glucose tolerance ([4]; 50 and 100 mg/kg/d (FIG. 2)): improved; serum AST levels ([4]; FIG. 3): significantly reduced; serum creatinine (CREA) ([4]; after administration, vs model group (FIG. 3)): decreased significantly; serum TC [4, 6]: significantly decreased; serum TG [4, 6]: significantly decreased; hypoglycemic effect compared with positive control (metformin, 225 mg/kg) ([4]; high dose group 100 mg/kg/d): better hypoglycemic effect than the positive control; blood glucose ([4]; high dose group 100 mg/kg/d): significantly reduced; insulin sensitivity (insulin tolerance test) ([4]; low and high dose groups vs model group, after intraperitoneal insulin (FIG. 2)): restored insulin sensitivity; hypoglycemic effect compared with positive control (metformin, 225 mg/kg) ([4]; low dose group 50 mg/kg/d): equivalent to that of the positive control group; blood glucose ([4]; low dose group 50 mg/kg/d): significantly reduced; reduction of TC compared with metformin ([4]; metformin 225 mg/kg/d): even better than metformin; blood levels of GLP-1 ([5]; FIG. 6): Increased; serum content of insulin INS ([5]; after high dose administration (FIG. 6)): significantly increased; inflammatory cytokine IL-6 ([5]; at low doses (FIG. 6)): significantly decreased; inflammatory cytokine TNF ([5]; at low doses (FIG. 6)): significantly decreased; plasma BNP ([5]; at low doses (FIG. 6)): significantly decreased; insulin sensitivity (insulin tolerance test, ITT) ([5]; db/db mice, gavage 6 weeks, each drug group, especially 12 high-dose group (80 mg/kg/d) (FIG. 4)): significantly improved; serum ALT [5, 7]: significant decreases; serum AST [5, 7]: significant decreases; serum total bile acid content [5, 7]: significant decreases
